Earlier results in paper PMC11359394 (Pharmaceutics, 2024).

Key:
[1] = system: CYP2C8 and CYP3A4 isoenzymes
[2] = design: method as in US FDA GRAS Notices; details: rats, dietary consumption; ref US FDA GRAS Notices

| Compound | solubility increase by exploiting the polymorphs [fold] | fraction metabolized in the liver by CYP P450 [1] | dietary dose with no adverse effects [2] |
| --- | --- | --- | --- |
| CC(=O)O[C@H]1C(=O)[C@@]2(C)[C@H]([C@H](OC(=O)c3ccccc3)[C@]3(O)C[C@H](OC(=O)[C@H](O)[C@@H](NC(=O)c4ccccc4)c4ccccc4)C(C)=C1C3(C)C)[C@]1(OC(C)=O)CO[C@@H]1C[C@@H]2O [Paclitaxel] | 60 | Approximately 90% | – |
| C=C1C[C@@]23CC[C@H]4[C@@](C)(CCC[C@@]4(C)C(=O)O[C@@H]4O[C@H](CO)[C@@H](O)[C@H](O)[C@H]4O)[C@@H]2CC[C@]1(O[C@@H]1O[C@H](CO)[C@@H](O)[C@H](O)[C@H]1O)C3 [RUB, Rubusoside] | – | – | up to 2 g/kg |
